What was measured:
wild-type EGFR (WT EGFR) = wild-type EGFR (WT EGFR) (Homo sapiens (Human), UniProt P00533); assay: Mobility Shift Assay, in vitro enzyme-inhibiting activity, wild-type EGFR; assay type: biochemical; conditions: Km ATP
Method: (§1) 1. Preparation of Reagents
(§2) 2. Preparation of a Compound Solution
(§3) (1) To the second well of a 96-well plate, 5 μL 10 mM compound (dissolved in DMSO) was added, and 95 μL 100% DMSO was added to prepare 100 μL 0.5 mM compound.
(§4) (2) To other wells, 60 μL 100% DMSO was added. 20 μL compound from the second well was added to the third well, and 4-fold dilution was further performed to get 10 diluted concentrations.
(§5) (3) To the first well and the twelfth well of the 96-well plate, 100 μL 100% DMSO was separately added, and the two wells were used as control wells.
(§6) (4) 10 μL from each well of the 96-well plate was added to another 96-well plate, and 90 μL 1-fold kinase buffer was added.
(§7) (5) 5 μL from the 96-well plate was added to another 384-well plate, for example, transferred from A1 well of the 96-well plate to A1 and A2 wells of the 384-well plate, and transferred from A2 well of the 96-well plate to A3 and A4 wells of the 384-well plate, and so on.
(§8) To 384-well plate, 10 μL 2.5-fold enzyme solution was added, and incubated at room temperature for 10 min.
(§9) (5) Kinase reaction and stop
(§10) After incubation at 28° C. for a period of time (depending on kinase), 25 μL stop solution was added.
(§11) 4. Data on percent conversion was read by Caliper.
(§12) (1) Data on enzyme activity was obtained by Caliper program;
(§13) (2) Inhibition rate of enzyme activity was calculated from the data on enzyme activity by the following formula: Inhibition rate(%)=(maximal value−the measured value of a test compound)/(maximal value-minimal value)×100,
(§14) wherein, the maximal value represents the measured value of DMSO control; and the minimal value represents the measured value of blank control.
(§15) (3) Calculation of IC50 value by XLFit excel.

EGFR T790M = EGFR T790M (Homo sapiens (Human), UniProt P00533, T790M); assay: Mobility Shift Assay, in vitro enzyme-inhibiting activity, EGFR T790M; assay type: biochemical; conditions: for IC50: Km ATP; for Selectivity (WT/T790M): ratio of IC50
Method: as §1, §2, §3, §4, §5, §6, §7, §8, §9, §10, §11, §12, §13, §14, §15

EGFR L858R = EGFR L858R (Homo sapiens (Human), UniProt P00533, L858R); assay: Mobility Shift Assay, in vitro enzyme-inhibiting activity, EGFR L858R; assay type: biochemical; conditions: for IC50: Km ATP; for Selectivity WT/L858R: ratio of IC50
Method: as §1, §2, §3, §4, §5, §6, §7, §8, §9, §10, §11, §12, §13, §14, §15

EGFR T790M-L858R = EGFR T790M-L858R (Homo sapiens (Human), UniProt P00533, L858R/T790M); assay: Mobility Shift Assay, in vitro enzyme-inhibiting activity, EGFR T790M-L858R; assay type: biochemical; conditions: for IC50: Km ATP; for Selectivity WT/T790M-L858R: ratio of IC50
Method: as §1, §2, §3, §4, §5, §6, §7, §8, §9, §10, §11, §12, §13, §14, §15

EGFR (d746-750) = EGFR (d746-750) (Homo sapiens (Human), UniProt P00533, DEL746-750); assay: Mobility Shift Assay, in vitro enzyme-inhibiting activity, EGFR (d746-750); assay type: biochemical; conditions: for IC50: Km ATP; for Selectivity WT/d746-750: ratio of IC50
Method: as §1, §2, §3, §4, §5, §6, §7, §8, §9, §10, §11, §12, §13, §14, §15

[1] = system: H1975 cell (EGFR-T790M/L858R double mutation); assay: In vitro cytologic activity, Celltiter-Glo, H1975 cells; assay type: cell-based, human; conditions: for IC50: Homo sapiens, NCI-H1975, 72 h, 72 h, Celltiter-Glo; for Selectivity (A431/H1975): ratio of IC50
Method: (§16) 1.1 Preparation of Cell Suspension
(§17) Culture medium was removed from culture bottle;
(§18) PBS was added to wash the cells; • pancreatin was added for digestion, and the cells were collected by centrifugation; • the cells were resuspended in a culture medium containing 10% fetal bovine serum, counted and adjusted to a concentration of 2×10^4/mL or 3×10^4/mL (cell viability must be greater than 90%); • the cell suspension was added to a 96-well plate, at 100 μL for each well, i.e., 2000/well for H1975 cell; 3000/well for A431 cell; and • the cells were cultured at 37° C. in 5% CO2 incubator overnight.
(§19) Dilution of a compound in DMSO (or water for injection) • (1) The compound was 5-fold diluted with DMSO from 10 mM to 2 mM, and then 4-fold diluted from 2 mM, to get 10 concentrations; • High control (HC, control without compound inhibition): 0.5% DMSO; • Low control (LC, control with compound inhibition): 1000 nM.
(§20) i. To each well, 99 μL growth medium containing 10% FBS was added, and then 1 μL diluted compound was added, the total volume of the well was […], and the final concentration of the compound was measured.
(§21) The test plate was left at room temperature, and equilibrated for 30 min. 80 μL culture medium was discarded. 60 μL CTG reagent (Celltiter-Glo kit) was added, and shaked for 2 min in a fast shaker, and was placed at room temperature for 10 min. The values were read by Envision instrument.

[2] = system: A431 cell (wild-type EGFR gene); assay: In vitro cytologic activity, Celltiter-Glo, A431 cells; assay type: cell-based; conditions: Homo sapiens, A-431, 72 h
Method: as §16, §17, §18, §19, §20, §21

EGFR T790M, sequence (P00533 25-1210 T790M): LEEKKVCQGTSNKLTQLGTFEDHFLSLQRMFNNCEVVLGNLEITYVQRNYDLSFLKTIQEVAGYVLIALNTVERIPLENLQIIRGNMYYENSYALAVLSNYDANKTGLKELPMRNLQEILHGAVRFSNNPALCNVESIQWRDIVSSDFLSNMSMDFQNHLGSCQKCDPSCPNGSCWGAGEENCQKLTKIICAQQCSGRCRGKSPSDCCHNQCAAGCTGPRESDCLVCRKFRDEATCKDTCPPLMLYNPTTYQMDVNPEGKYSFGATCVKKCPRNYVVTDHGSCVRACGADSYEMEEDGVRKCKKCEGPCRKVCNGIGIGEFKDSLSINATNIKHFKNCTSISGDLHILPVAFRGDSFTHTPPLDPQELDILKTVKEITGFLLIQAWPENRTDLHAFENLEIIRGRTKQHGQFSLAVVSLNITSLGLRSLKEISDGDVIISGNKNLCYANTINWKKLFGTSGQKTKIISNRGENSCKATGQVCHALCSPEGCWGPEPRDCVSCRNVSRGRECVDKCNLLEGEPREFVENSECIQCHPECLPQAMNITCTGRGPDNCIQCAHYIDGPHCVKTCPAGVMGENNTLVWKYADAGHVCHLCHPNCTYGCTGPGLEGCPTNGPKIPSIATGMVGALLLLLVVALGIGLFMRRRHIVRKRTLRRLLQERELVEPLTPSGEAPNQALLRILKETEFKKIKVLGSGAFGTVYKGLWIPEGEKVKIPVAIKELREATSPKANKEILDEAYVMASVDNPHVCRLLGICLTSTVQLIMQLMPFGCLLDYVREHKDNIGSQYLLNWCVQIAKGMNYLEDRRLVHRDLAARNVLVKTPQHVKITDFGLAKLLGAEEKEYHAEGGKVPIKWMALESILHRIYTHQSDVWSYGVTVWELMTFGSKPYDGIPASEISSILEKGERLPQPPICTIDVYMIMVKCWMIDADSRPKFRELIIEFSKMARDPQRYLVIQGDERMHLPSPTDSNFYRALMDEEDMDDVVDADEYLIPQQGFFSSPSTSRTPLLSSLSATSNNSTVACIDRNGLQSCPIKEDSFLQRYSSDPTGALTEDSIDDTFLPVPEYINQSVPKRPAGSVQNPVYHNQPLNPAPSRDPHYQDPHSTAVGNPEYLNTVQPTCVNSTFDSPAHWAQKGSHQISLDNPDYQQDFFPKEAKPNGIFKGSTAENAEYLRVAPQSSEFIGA
EGFR (d746-750), sequence (P00533 other isoform, or with tags, fused parts or gaps del 1-668/del 746-750 limits assumed): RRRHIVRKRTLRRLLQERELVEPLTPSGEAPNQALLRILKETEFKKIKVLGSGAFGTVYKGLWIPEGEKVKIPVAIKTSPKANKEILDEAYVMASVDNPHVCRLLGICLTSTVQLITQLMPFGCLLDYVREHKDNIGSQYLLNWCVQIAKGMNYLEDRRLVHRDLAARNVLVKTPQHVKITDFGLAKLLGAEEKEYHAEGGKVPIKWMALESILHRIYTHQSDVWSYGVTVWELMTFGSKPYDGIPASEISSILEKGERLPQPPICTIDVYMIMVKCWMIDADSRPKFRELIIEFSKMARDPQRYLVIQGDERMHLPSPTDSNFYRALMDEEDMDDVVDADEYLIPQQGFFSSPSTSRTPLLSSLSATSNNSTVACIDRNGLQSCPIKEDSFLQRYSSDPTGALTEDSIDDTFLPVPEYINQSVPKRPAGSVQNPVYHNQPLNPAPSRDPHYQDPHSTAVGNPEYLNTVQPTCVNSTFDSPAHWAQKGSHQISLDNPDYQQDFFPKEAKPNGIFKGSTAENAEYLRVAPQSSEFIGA
wild-type EGFR (WT EGFR), sequence (P00533 25-1210): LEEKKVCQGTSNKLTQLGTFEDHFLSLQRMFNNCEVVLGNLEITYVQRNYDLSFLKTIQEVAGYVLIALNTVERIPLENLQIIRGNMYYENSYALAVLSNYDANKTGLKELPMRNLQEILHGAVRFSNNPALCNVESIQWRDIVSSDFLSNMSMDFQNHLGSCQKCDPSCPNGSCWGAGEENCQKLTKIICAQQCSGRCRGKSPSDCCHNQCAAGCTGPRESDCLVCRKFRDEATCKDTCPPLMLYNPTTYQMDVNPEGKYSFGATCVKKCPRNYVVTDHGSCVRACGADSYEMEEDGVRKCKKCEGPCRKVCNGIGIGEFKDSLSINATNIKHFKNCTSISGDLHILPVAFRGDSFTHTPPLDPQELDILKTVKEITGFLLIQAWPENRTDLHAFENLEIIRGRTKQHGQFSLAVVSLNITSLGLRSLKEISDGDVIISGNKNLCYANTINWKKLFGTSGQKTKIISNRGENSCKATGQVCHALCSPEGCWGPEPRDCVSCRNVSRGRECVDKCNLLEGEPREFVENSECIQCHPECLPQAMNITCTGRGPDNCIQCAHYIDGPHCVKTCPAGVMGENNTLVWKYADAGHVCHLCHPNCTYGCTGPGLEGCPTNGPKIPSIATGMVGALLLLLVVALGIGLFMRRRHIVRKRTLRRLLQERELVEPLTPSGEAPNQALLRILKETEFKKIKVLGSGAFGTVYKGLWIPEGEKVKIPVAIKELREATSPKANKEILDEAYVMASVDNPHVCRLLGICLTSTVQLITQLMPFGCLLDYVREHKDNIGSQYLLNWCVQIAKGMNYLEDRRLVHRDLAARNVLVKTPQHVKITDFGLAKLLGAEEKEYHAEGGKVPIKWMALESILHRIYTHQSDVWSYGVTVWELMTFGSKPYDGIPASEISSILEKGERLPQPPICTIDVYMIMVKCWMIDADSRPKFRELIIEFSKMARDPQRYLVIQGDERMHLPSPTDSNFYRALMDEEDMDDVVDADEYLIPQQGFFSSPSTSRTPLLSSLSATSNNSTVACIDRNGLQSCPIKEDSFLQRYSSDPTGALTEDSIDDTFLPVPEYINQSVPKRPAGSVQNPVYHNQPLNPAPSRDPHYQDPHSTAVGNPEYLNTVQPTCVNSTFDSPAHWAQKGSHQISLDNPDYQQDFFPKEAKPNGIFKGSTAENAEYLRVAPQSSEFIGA
EGFR L858R, sequence (P00533 25-1210 L858R): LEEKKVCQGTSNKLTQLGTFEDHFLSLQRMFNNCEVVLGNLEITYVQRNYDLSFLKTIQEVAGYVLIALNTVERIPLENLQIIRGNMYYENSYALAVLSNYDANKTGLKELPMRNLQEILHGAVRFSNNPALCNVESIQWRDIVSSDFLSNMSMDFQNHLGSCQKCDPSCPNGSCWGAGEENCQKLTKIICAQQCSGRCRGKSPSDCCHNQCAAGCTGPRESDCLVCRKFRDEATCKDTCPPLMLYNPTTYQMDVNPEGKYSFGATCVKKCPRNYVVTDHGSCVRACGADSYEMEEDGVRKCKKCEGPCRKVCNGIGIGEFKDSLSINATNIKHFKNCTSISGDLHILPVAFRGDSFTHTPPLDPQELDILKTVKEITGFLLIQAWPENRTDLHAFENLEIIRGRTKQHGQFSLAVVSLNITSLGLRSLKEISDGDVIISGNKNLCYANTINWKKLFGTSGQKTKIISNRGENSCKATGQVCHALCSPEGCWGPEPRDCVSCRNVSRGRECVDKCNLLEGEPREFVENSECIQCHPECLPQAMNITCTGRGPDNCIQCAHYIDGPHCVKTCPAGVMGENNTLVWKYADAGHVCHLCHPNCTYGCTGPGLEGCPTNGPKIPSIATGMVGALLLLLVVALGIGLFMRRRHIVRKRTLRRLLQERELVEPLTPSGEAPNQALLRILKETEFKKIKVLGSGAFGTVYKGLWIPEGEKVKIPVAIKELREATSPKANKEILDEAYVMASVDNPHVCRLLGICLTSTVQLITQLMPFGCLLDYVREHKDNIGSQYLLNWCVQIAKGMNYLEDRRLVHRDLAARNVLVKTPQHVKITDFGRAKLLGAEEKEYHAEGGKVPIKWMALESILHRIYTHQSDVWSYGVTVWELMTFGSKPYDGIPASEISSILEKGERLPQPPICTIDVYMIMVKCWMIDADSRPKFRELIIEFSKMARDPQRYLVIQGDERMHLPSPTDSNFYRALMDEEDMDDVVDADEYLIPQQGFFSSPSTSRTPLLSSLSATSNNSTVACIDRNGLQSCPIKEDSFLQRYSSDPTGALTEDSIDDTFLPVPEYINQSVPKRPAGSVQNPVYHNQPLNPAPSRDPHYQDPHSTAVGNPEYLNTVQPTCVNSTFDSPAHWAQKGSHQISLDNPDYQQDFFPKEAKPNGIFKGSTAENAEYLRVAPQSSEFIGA

SMILES	IC50 (wild-type EGFR (WT EGFR); Table 7)	IC50 (EGFR T790M; Table 7)	Selectivity (WT/T790M) (EGFR T790M; Table 7)	IC50 (EGFR L858R; Table 7)	Selectivity WT/L858R (EGFR L858R; Table 7)	IC50 (EGFR T790M-L858R; Table 7)	Selectivity WT/T790M-L858R (EGFR T790M-L858R; Table 7)	IC50 (EGFR (d746-750); Table 7)	Selectivity WT/d746-750 (EGFR (d746-750); Table 7)	IC50 (wild-type EGFR (WT EGFR); Table 4, unit inferred)	IC50 (EGFR T790M; Table 4, unit inferred)	Selectivity (WT/T790M) (EGFR T790M; Table 4)	also measured
C=CC(=O)Nc1cccc(Nc2nc(Nc3ccc(C4=CCN(C(C)=O)CC4)cc3OC)ncc2C(F)(F)F)c1 [Compound 3, N-(3-((2-((4-(1-acetyl-1,2,3,6-tetrahydropyridin-4-yl)-2-methoxyphenyl)amino)-5-(trifluoromethyl)pyrimidin-4-yl)amino)phenyl)acrylamide]	–	–	–	–	–	–	–	–	–	–	–	–	IC50 (wild-type EGFR (WT EGFR); Table 1): 699 nM; IC50 (wild-type EGFR (WT EGFR); Table 5): 733 nM; IC50 (EGFR T790M; Table 1): 4.7 nM; Selectivity (WT/T790M) (EGFR T790M; Table 1): 148.7; IC50 (EGFR L858R; Table 5): 154 nM; Selectivity WT/L858R (EGFR L858R; Table 5): 4.8; IC50 (EGFR T790M-L858R; Table 5): 6 nM; Selectivity WT/T790M-L858R (EGFR T790M-L858R; Table 5): 122.9; IC50 (EGFR (d746-750); Table 5): 51.4 nM; Selectivity WT/d746-750 (EGFR (d746-750); Table 5): 14.2
C=CC(=O)Nc1cccc(Nc2nc(Nc3ccc(C4CCN(C(C)=O)CC4)cc3OC)ncc2C(F)(F)F)n1 [Compound 4, N-(6-((2-((4-(1-acetylpiperidin-4-yl)-2-methoxyphenyl)amino)-5-(trifluoromethyl)pyrimidin-4-yl)amino)pyridin-2-yl)acrylamide]	423 nM	7.2 nM	58.8	82 nM	5.2	5.2 nM	81.3	40 nM	10.6	–	–	–	IC50 (wild-type EGFR (WT EGFR); Table 3): 423 nM; IC50 (EGFR T790M; Table 3): 7.2 nM; Selectivity (WT/T790M) (EGFR T790M; Table 3): 58.8
C=CC(=O)Nc1cccc(Nc2nc(Nc3ccc(N4CC5CCC(C4)N5C(C)=O)cc3OC)ncc2C(F)(F)F)c1 [Compound 7, N-(3-((2-((4-(8-acetyl-3,8-diazabicyclo[3.2.1]octan-3-yl)-2-methoxyphenyl)amino)-5-(trifluoromethyl)pyrimidin-4-yl)amino)phenyl)acrylamide]	–	–	–	–	–	–	–	–	–	332 nM	6.2 nM	53.5	–
C=CC(=O)Nc1cccc(Nc2nc(Nc3ccc(N4C[C@H]5CN(C(C)=O)C[C@H]5C4)cc3OC)ncc2C(F)(F)F)c1 [Compound 9-1, N-(3-((2-((4-((cis)-5-acetylhexahydropyrrolo[3,4-c]pyrrol-2(1H)-yl)-2-methoxyphenyl)amino)-5-(trifluoromethyl)pyrimidin-4-yl)amino)phenyl)acrylamide]	560 nM	9 nM	62.2	119 nM	4.7	12.6 nM	44.5	92.7 nM	6.0	–	–	–	–
C=CC(=O)Nc1cccc(Nc2nc(Nc3cc4c(cc3OC)CN(C(C)=O)CC4)ncc2C(F)(F)F)c1 [Compound 11, N-(3-((2-((2-acetyl-7-methoxy-1,2,3,4-tetrahydroisoquinolin-6-yl)amino)-5-(trifluoromethyl)pyrimidin-4-yl)amino)phenyl)acrylamide]	–	–	–	–	–	–	–	–	–	–	–	–	IC50 (wild-type EGFR (WT EGFR); Table 2): 640 nM; IC50 (EGFR T790M; Table 2): 13 nM; Selectivity (WT/T790M) (EGFR T790M; Table 2): 49.2; IC50 ([1]; Table 9): 179 nM; Selectivity (A431/H1975) ([1]; Table 9): 9.9; IC50 ([2]; Table 9): 1770 nM
C=CC(=O)Nc1cccc(Nc2nc(Nc3ccc4c(c3OC)CN(C(C)=O)CC4)ncc2C(F)(F)F)c1 [Compound 17, N-(3-((2-((2-acetyl-8-methoxy-1,2,3,4-tetrahydroisoquinoline-7-yl)amino)-5-(trifluoromethyl)pyrimidin-4-yl)amino)phenyl)acrylamide]	–	–	–	–	–	–	–	–	–	1370 nM	16 nM	85.6	–
C=CC(=O)Nc1cccc(Nc2nc(Nc3ccc(C4CCNC(=O)C4)cc3OC)ncc2C(F)(F)F)c1 (stereo not shown) [Compound 22, N-(3-((2-((2-methoxy-4-(2-oxopiperidin-4-yl)phenyl)amino)-5-(trifluoromethyl)pyrimidin-4-yl)amino)phenyl)acrylamide]	181 nM	2.7 nM	67.2	28.2 nM	6.4	4.06 nM	44.6	28.3 nM	6.4	–	–	–	–
C=CC(=O)Nc1cccc(Nc2nc(Nc3ccc(C4CCN(CCF)C(=O)C4)cc3OC)ncc2C(F)(F)F)c1 (stereo not shown) [Compound 23, N-(3-((2-((4-(1-(2-fluoroethyl)-2-oxopiperidin-4-yl)-2-methoxyphenyl)amino)-5-(trifluoromethyl)pyrimidin-4-yl)amino)phenyl)acrylamide]	–	–	–	–	–	–	–	–	–	294 nM	3.9 nM	75.4	–
C=CC(=O)Nc1cccc(Nc2nc(Nc3ccc(C4CCN(C(=O)CC)CC4)cc3OC)ncc2C(F)(F)F)c1 [Compound 24, N-(3-((2-((2-methoxy-4-(1-propionylpiperidin-4-yl)phenyl)amino)-5-(trifluoromethyl)pyrimidin-4-yl)amino)phenyl)acrylamide]	666 nM	9.1 nM	73.2	109 nM	6.1	10.2 nM	65.4	91.7 nM	7.3	–	–	–	–
C=CC(=O)Nc1cccc(Nc2nc(Nc3ccc(OC)c4c3CCN(C(C)=O)C4)ncc2C(F)(F)F)c1 [Compound 35, N-(3-((2-((2-acetyl-8-methoxy-1,2,3,4-tetrahydroisoquinoline-5-yl)amino)-5-(trifluoromethyl)pyrimidin-4-yl)amino)phenyl)acrylamide]	–	–	–	–	–	–	–	–	–	–	–	–	IC50 ([1]; Table 10, unit inferred): 266 nM; Selectivity (A431/H1975) ([1]; Table 10): 13.5; IC50 ([2]; Table 10, unit inferred): 3600 nM
C=CC(=O)Nc1cccc(Nc2nc(Nc3ccc(OC)c4c3CN(C(C)=O)C4)ncc2C(F)(F)F)c1 [Compound 36, N-(3-((2-((2-acetyl-7-methoxyisoindolin-4-yl)amino)-5-(trifluoromethyl)pyrimidin-4-yl)amino)phenyl)acrylamide]	–	–	–	–	–	–	–	–	–	–	–	–	IC50 ([1]; Table 10, unit inferred): 326 nM; Selectivity (A431/H1975) ([1]; Table 10): 21.5; IC50 ([2]; Table 10, unit inferred): 7000 nM
C=CC(=O)Nc1cccc(Nc2nc(Nc3cccc4c3CCN(C(C)=O)C4)ncc2C(F)(F)F)c1 [Compound 37, N-(3-((2-((2-acetyl-1,2,3,4-tetrahydroisoquinoline-5-yl)amino)-5-(trifluoromethyl)pyrimidin-4-yl)amino)phenyl)acrylamide]	–	–	–	–	–	–	–	–	–	1280 nM	9.9 nM	129.7	–

Reference: US10300058B2, “Tyrosine kinase inhibitor and uses thereof” (Xuanzhu Pharma Co., Ltd., priority 2014, dated 2019)
